Species on record: Rattus norvegicus
Assay: DrugMatrix - Regimen: Daily Repeat
Format: toxicity, organism-based, Sprague-Dawley
Set-up: regimen Daily Repeat, gender Male, age 6-8 weeks
Settings: in vivo, po, route oral GAVAGE, vehicle 100 % WATER; for ABSOLUTE BASOPHIL / ABSOLUTE EOSINOPHIL / ABSOLUTE LYMPHOCYTE / ABSOLUTE MONOCYTE / ABSOLUTE SEGMENTED NEUTROPHIL / BASOPHIL / EOSINOPHIL / ERYTHROCYTE COUNT / HEMATOCRIT / HEMOGLOBIN / LEUKOCYTE COUNT / LYMPHOCYTE / MEAN CORPUSCULAR HEMOGLOBIN / MEAN CORPUSCULAR HEMOGLOBIN CONCENTRATION / MEAN CORPUSCULAR VOLUME / MONOCYTE / NEUTROPHIL / NUCLEATED RED BLOOD CELLS / PLATELET COUNT: tissue Blood; for ALANINE AMINOTRANSFERASE / ALBUMIN / ALKALINE PHOSPHATASE / ASPARTATE AMINOTRANSFERASE / BLOOD UREA NITROGEN / CARBON DIOXIDE / CHLORIDE / CHOLESTEROL / CREATINE PHOSPHOKINASE / CREATININE / GLUCOSE / LACTATE DEHYDROGENASE / LIPASE / PHOSPHORUS / POTASSIUM / SODIUM / TOTAL BILIRUBIN / TOTAL PROTEIN / URIC ACID: tissue Plasma
[1] = 0 mg/kg, 72 h, dose level Control, time 3 day
[2] = 0 mg/kg, 120 h, dose level Control, time 5 day
[3] = 27 mg/kg, 72 h, dose level Low, time 3 day

CNNCc1ccc(C(=O)NC(C)C)cc1 [PROCARBAZINE]
ABSOLUTE BASOPHIL [1]: 0 CELLS/uL | ABSOLUTE EOSINOPHIL [1]: 0 CELLS/uL | ABSOLUTE LYMPHOCYTE [1]: 7802.17 CELLS/uL | ABSOLUTE MONOCYTE [1]: 13.5 CELLS/uL | ABSOLUTE SEGMENTED NEUTROPHIL [1]: 617.67 CELLS/uL | BASOPHIL [1]: 0% | EOSINOPHIL [1]: 0% | ERYTHROCYTE COUNT [1]: 5.35 x10E6/uL | HEMATOCRIT [1]: 33.02% | HEMOGLOBIN [1]: 12.88 G/DL | LEUKOCYTE COUNT [1]: 8.43 x10E3/uL | LYMPHOCYTE [1]: 92.67% | MEAN CORPUSCULAR HEMOGLOBIN [1]: 24.12 pg | MEAN CORPUSCULAR HEMOGLOBIN CONCENTRATION [1]: 39.03 G/DL | MEAN CORPUSCULAR VOLUME [1]: 61.8 fL | MONOCYTE [1]: 0.17% | NEUTROPHIL [1]: 7.17% | NUCLEATED RED BLOOD CELLS [1]: 0 /100WBC | PLATELET COUNT [1]: 1124.83 x10E3/uL | ALANINE AMINOTRANSFERASE [1]: 54.17 u/L | ALBUMIN [1]: 4.07 G/DL | ALKALINE PHOSPHATASE [1]: 383.83 u/L | ASPARTATE AMINOTRANSFERASE [1]: 82.17 u/L | BLOOD UREA NITROGEN [1]: 13.67 mg/dL | CARBON DIOXIDE [1]: 31 mmol/L | CHLORIDE [1]: 100.83 MEQ/L | CHOLESTEROL [1]: 65.17 mg/dL | CREATINE PHOSPHOKINASE [1]: 228.33 u/L | CREATININE [1]: 0.12 mg/dL | GLUCOSE [1]: 148 mg/dL | LACTATE DEHYDROGENASE [1]: 97.83 u/L | LIPASE [1]: 9.17 u/L | PHOSPHORUS [1]: 9.75 mg/dL | POTASSIUM [1]: 5.85 MEQ/L | SODIUM [1]: 147.02 MEQ/L | TOTAL BILIRUBIN [1]: 0.18 mg/dL | TOTAL PROTEIN [1]: 6.1 G/DL | URIC ACID [1]: 0.5 mg/dL | ABSOLUTE BASOPHIL [2]: 0 CELLS/uL | ABSOLUTE EOSINOPHIL [2]: 0 CELLS/uL | ABSOLUTE LYMPHOCYTE [2]: 10538 CELLS/uL | ABSOLUTE MONOCYTE [2]: 15.83 CELLS/uL | ABSOLUTE SEGMENTED NEUTROPHIL [2]: 762.83 CELLS/uL | BASOPHIL [2]: 0% | EOSINOPHIL [2]: 0% | ERYTHROCYTE COUNT [2]: 5.49 x10E6/uL | HEMATOCRIT [2]: 34.63% | HEMOGLOBIN [2]: 13.72 G/DL | LEUKOCYTE COUNT [2]: 11.32 x10E3/uL | LYMPHOCYTE [2]: 92.67% | MEAN CORPUSCULAR HEMOGLOBIN [2]: 24.97 pg | MEAN CORPUSCULAR HEMOGLOBIN CONCENTRATION [2]: 39.57 G/DL | MEAN CORPUSCULAR VOLUME [2]: 63.05 fL | MONOCYTE [2]: 0.17% | NEUTROPHIL [2]: 7.17% | NUCLEATED RED BLOOD CELLS [2]: 0.17 /100WBC | PLATELET COUNT [2]: 802 x10E3/uL | ALANINE AMINOTRANSFERASE [2]: 50.5 u/L | ALBUMIN [2]: 4.07 G/DL | ALKALINE PHOSPHATASE [2]: 336.83 u/L | ASPARTATE AMINOTRANSFERASE [2]: 81 u/L | BLOOD UREA NITROGEN [2]: 14.17 mg/dL | CARBON DIOXIDE [2]: 32 mmol/L | CHLORIDE [2]: 98.33 MEQ/L | CHOLESTEROL [2]: 69.17 mg/dL | CREATINE PHOSPHOKINASE [2]: 253.33 u/L | CREATININE [2]: 0.13 mg/dL | GLUCOSE [2]: 153.67 mg/dL | LACTATE DEHYDROGENASE [2]: 157 u/L | LIPASE [2]: 9 u/L | PHOSPHORUS [2]: 10.78 mg/dL | POTASSIUM [2]: 6.11 MEQ/L | SODIUM [2]: 144.57 MEQ/L | TOTAL BILIRUBIN [2]: 0.15 mg/dL | TOTAL PROTEIN [2]: 6.05 G/DL | URIC ACID [2]: 0.73 mg/dL | ABSOLUTE BASOPHIL [3]: 0 CELLS/uL | ABSOLUTE EOSINOPHIL [3]: 0 CELLS/uL | ABSOLUTE LYMPHOCYTE [3]: 5898 CELLS/uL | ABSOLUTE MONOCYTE [3]: 47.67 CELLS/uL | ABSOLUTE SEGMENTED NEUTROPHIL [3]: 121 CELLS/uL | BASOPHIL [3]: 0% | EOSINOPHIL [3]: 0% | ERYTHROCYTE COUNT [3]: 5.61 x10E6/uL | HEMATOCRIT [3]: 35.4% | HEMOGLOBIN [3]: 13.53 G/DL | LEUKOCYTE COUNT [3]: 6.07 x10E3/uL | LYMPHOCYTE [3]: 97% | MEAN CORPUSCULAR HEMOGLOBIN [3]: 24.13 pg | MEAN CORPUSCULAR HEMOGLOBIN CONCENTRATION [3]: 38.2 G/DL | MEAN CORPUSCULAR VOLUME [3]: 63.1 fL | MONOCYTE [3]: 1% | NEUTROPHIL [3]: 2% | NUCLEATED RED BLOOD CELLS [3]: 0 /100WBC | PLATELET COUNT [3]: 1005 x10E3/uL | ALANINE AMINOTRANSFERASE [3]: 73.33 u/L | ALBUMIN [3]: 4.33 G/DL | ALKALINE PHOSPHATASE [3]: 429.33 u/L | ASPARTATE AMINOTRANSFERASE [3]: 103.33 u/L | BLOOD UREA NITROGEN [3]: 13.67 mg/dL | CARBON DIOXIDE [3]: 31.67 mmol/L | CHLORIDE [3]: 97.5 MEQ/L | CHOLESTEROL [3]: 76.33 mg/dL | CREATINE PHOSPHOKINASE [3]: 504 u/L | CREATININE [3]: 0.1 mg/dL | GLUCOSE [3]: 139.67 mg/dL | LACTATE DEHYDROGENASE [3]: 137.67 u/L | LIPASE [3]: 11.67 u/L | PHOSPHORUS [3]: 9.73 mg/dL | POTASSIUM [3]: 5.46 MEQ/L | SODIUM [3]: 144.3 MEQ/L | TOTAL BILIRUBIN [3]: 0.13 mg/dL | TOTAL PROTEIN [3]: 6.27 G/DL | URIC ACID [3]: 0.57 mg/dL

Source: ChEMBL document CHEMBL3885881, “DrugMatrix”
